Laboratory results taken from patent publication USRE47689E1, “Compounds for treating spinal muscular atrophy” (PTC Therapeutics, Inc., priority 2011, dated 2019).

Experiments:
[1] = system: SMN2 minigene (full length SMN2 minigene mRNA containing SMN2 exon 7); test: SMN2 minigene mRNA splicing RT-qPCR assay in cultured cells; format: cell-based, human; conditions: Homo sapiens, HEK293-H; HEK293H cells stably transfected with SMN2-A minigene; 24 hours; 7-point concentration curve; 1.5-fold relative to vehicle-treated cells; read-out: EC1.5x for production of full length SMN2 mRNA
In short: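 Read-out: full-length (exon 7-included) SMN2 minigene mRNA by multiplex RT-qPCR with GAPDH, efficiency-corrected (1+E)^−Ct, GAPDH-normalized and divided by vehicle. Stably transfected HEK293H cells, 24 h compound exposure, duplicates per concentration. Value is EC1.5x, reported as star ranges.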

Smn protein = Smn protein assay in cultured cells (SMN HTRF); format: cell-based, human; conditions: 48 hours; for EC1.5x (concentration giving 1.5-fold Smn protein increase): SMA Type 1 patient fibroblast cells (GM03813), 7-point concentration curve, SMN HTRF, concentration producing 1.5 times Smn protein vs DMSO vehicle control, read-out: EC1.5x for Smn protein expression; for maximum fold (Fold) increase of Smn protein: SMA patient fibroblast cells, 7-point concentration data, fold increase relative to vehicle control (SMN HTRF)
In short: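 Lysates in RIPA with protease inhibitors are incubated overnight at room temperature with HTRF anti-SMN antibodies. EC1.5x is derived from fold increase in ΔF over vehicle.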

**Q.** Which results are given for `Cc1cn2cc(-c3cc4ccc(N5CCN(CCF)[C@@H](C)C5)cc4oc3=O)nc2c(C)n1` [Compound 894, 3-(6,8-dimethylimidazo[1,2-a]pyrazin-2-yl)-7-[(3S)-4-(2-fluoroethyl)-3-methylpiperazin-1-yl]-2H-chromen-2-one]?
**A.** melting point: 192 to 195 °C; EC (1.5-fold) [1]: < 0.1 µM; EC1.5x (concentration giving 1.5-fold Smn protein increase) (Smn protein): 300 to 1000 nM; maximum fold (Fold) increase of Smn protein (Smn protein): ***** (fold increase >1.65)

**Q.** Which results are given for `CCN(CC)CCOc1ccc2cc(-c3cn4cc(C)nc(C)c4n3)c(=O)oc2c1` [Compound 895, 7-[2-(diethylamino)ethoxy]-3-(6,8-dimethylimidazo[1,2-a]pyrazin-2-yl)-2H-chromen-2-one]?
**A.** melting point: 175 to 177 °C; EC (1.5-fold) [1]: < 0.1 µM; EC1.5x (concentration giving 1.5-fold Smn protein increase) (Smn protein): < 300 nM; maximum fold (Fold) increase of Smn protein (Smn protein): ***** (fold increase >1.65)

**Q.** For `Cc1cn2cc(-c3cc4ccc(OCCN(CCO)CCO)cc4oc3=O)nc2c(C)n1` [Compound 896, 7-{2-[bis(2-hydroxyethyl)amino]ethoxy}-3-(6,8-dimethylimidazo[1,2-a]pyrazin-2-yl)-2H-chromen-2-one], which melting point is on record?
**A.** 199 to 202 °C

**Q.** And the EC (1.5-fold) [1]?
**A.** < 0.1 µM

**Q.** And the EC1.5x (concentration giving 1.5-fold Smn protein increase) (Smn protein)?
**A.** < 300 nM

**Q.** And the “maximum fold (Fold) increase of Smn protein” value (“maximum fold (Fold) increase” below) (Smn protein)?
**A.** ***** (fold increase >1.65)

**Q.** Which melting point does the source give for `Cc1cn2cc(-c3cc4ccc(OC5CCNCC5)cc4oc3=O)nc2c(C)n1` [Compound 897, 3-(6,8-dimethylimidazo[1,2-a]pyrazin-2-yl)-7-(piperidin-4-yloxy)-2H-chromen-2-one] here?
**A.** 172 to 177 °C

**Q.** And the EC (1.5-fold) [1]?
**A.** < 0.1 µM

**Q.** And the EC1.5x (concentration giving 1.5-fold Smn protein increase) (Smn protein)?
**A.** < 300 nM

**Q.** What about the “maximum fold (Fold) increase” value (Smn protein) of the same molecule?
**A.** ***** (fold increase >1.65)

**Q.** With `CCN1CCC(Oc2ccc3cc(-c4cn5cc(C)nc(C)c5n4)c(=O)oc3c2)CC1` [Compound 898, 3-(6,8-dimethylimidazo[1,2-a]pyrazin-2-yl)-7-[(1-ethylpiperidin-4-yl)oxy]-2H-chromen-2-one] as the molecule, how does the melting point read?
**A.** 175 to 177 °C

**Q.** And the EC (1.5-fold) [1]?
**A.** < 0.1 µM

**Q.** And the EC1.5x (concentration giving 1.5-fold Smn protein increase) (Smn protein)?
**A.** < 300 nM

**Q.** And the “maximum fold (Fold) increase” value (Smn protein)?
**A.** ***** (fold increase >1.65)

**Q.** Which results are given for `Cc1cn2cc(-c3cc4ccc(OC5CCN(CCO)CC5)cc4oc3=O)nc2c(C)n1` [Compound 899, 3-(6,8-dimethylimidazo[1,2-a]pyrazin-2-yl)-7-{[1-(2-hydroxyethyl)piperidin-4-yl]oxy}-2H-chromen-2-one]?
**A.** melting point: 165 to 168 °C; EC (1.5-fold) [1]: < 0.1 µM; EC1.5x (concentration giving 1.5-fold Smn protein increase) (Smn protein): < 300 nM; maximum fold (Fold) increase of Smn protein (Smn protein): ***** (fold increase >1.65)

**Q.** What does the source list for `Cc1cn2cc(-c3cc4ccc(N5CCN(CCCF)[C@@H](C)C5)cc4oc3=O)nc2c(C)n1` [Compound 900, 3-(6,8-dimethylimidazo[1,2-a]pyrazin-2-yl)-7-[(3S)-4-(3-fluoropropyl)-3-methylpiperazin-1-yl]-2H-chromen-2-one]?
**A.** melting point: 215 to 217 °C; EC (1.5-fold) [1]: < 0.1 µM; EC1.5x (concentration giving 1.5-fold Smn protein increase) (Smn protein): < 300 nM; maximum fold (Fold) increase of Smn protein (Smn protein): ***** (fold increase >1.65)

**Q.** For `Cc1cn2cc(-c3cc4ccc(OC5CCN(C(C)C)CC5)cc4oc3=O)nc2c(C)n1` [Compound 901, 3-(6,8-dimethylimidazo[1,2-a]pyrazin-2-yl)-7-{[1-(propan-2-yl)piperidin-4-yl]oxy}-2H-chromen-2-one], which melting point is on record?
**A.** 185 to 191 °C

**Q.** And the EC (1.5-fold) [1]?
**A.** < 0.1 µM

**Q.** What about the EC1.5x (concentration giving 1.5-fold Smn protein increase) (Smn protein) of the same molecule?
**A.** < 300 nM

**Q.** And the “maximum fold (Fold) increase” value (Smn protein)?
**A.** ***** (fold increase >1.65)

**Q.** Which melting point does the source give for `Cc1cn2cc(-c3cc4ccc(CCCCN(C)CCO)cc4oc3=O)nc2c(C)n1` [Compound 903, 3-(6,8-dimethylimidazo[1,2-a]pyrazin-2-yl)-7-{4-[(2-hydroxyethyl)(methyl)amino]butyl}-2H-chromen-2-one] here?
**A.** 156 to 160 °C

**Q.** What about the EC (1.5-fold) [1] of the same molecule?
**A.** < 0.1 µM

**Q.** What about the EC1.5x (concentration giving 1.5-fold Smn protein increase) (Smn protein) of the same molecule?
**A.** 300 to 1000 nM

**Q.** What about the “maximum fold (Fold) increase” value (Smn protein) of the same molecule?
**A.** **** (fold increase between >1.5 and ≤1.65)

**Q.** Which melting point does the source give for `Cc1cn2cc(-c3cc4ccc(CCCCN5CCC[C@@H]5CO)cc4oc3=O)nc2c(C)n1` [Compound 904, 3-(6,8-dimethylimidazo[1,2-a]pyrazin-2-yl)-7-{4-[(2R)-2-(hydroxymethyl)pyrrolidin-1-yl]butyl}-2H-chromen-2-one] here?
**A.** 147 to 151 °C

**Q.** And the EC (1.5-fold) [1]?
**A.** 0.1 to 0.3 µM

**Q.** And the EC1.5x (concentration giving 1.5-fold Smn protein increase) (Smn protein)?
**A.** 300 to 1000 nM

**Q.** What about the “maximum fold (Fold) increase” value (Smn protein) of the same molecule?
**A.** **** (fold increase between >1.5 and ≤1.65)

**Q.** What does the source list for `Cc1cn2cc(-c3cc4ccc(CCCCN5CCNCC5)cc4oc3=O)nc2c(C)n1` [Compound 905, 3-(6,8-dimethylimidazo[1,2-a]pyrazin-2-yl)-7-[4-(piperazin-1-yl)butyl]-2H-chromen-2-one]?
**A.** melting point: 187 to 191 °C; EC (1.5-fold) [1]: 1 to 3 µM; EC1.5x (concentration giving 1.5-fold Smn protein increase) (Smn protein): 1000 to 3000 nM; maximum fold (Fold) increase of Smn protein (Smn protein): **** (fold increase between >1.5 and ≤1.65)

**Q.** Which melting point does the source give for `Cc1cn2cc(-c3cc4ccc(C5CCN(CCCF)CC5)cc4oc3=O)nc2c(C)n1` [Compound 906, 3-(6,8-dimethylimidazo[1,2-a]pyrazin-2-yl)-7-[1-(3-fluoropropyl)piperidin-4-yl]-2H-chromen-2-one] here?
**A.** 195 to 200 °C

**Q.** What about the EC (1.5-fold) [1] of the same molecule?
**A.** < 0.1 µM

**Q.** And the EC1.5x (concentration giving 1.5-fold Smn protein increase) (Smn protein)?
**A.** < 300 nM

**Q.** What about the “maximum fold (Fold) increase” value (Smn protein) of the same molecule?
**A.** ***** (fold increase >1.65)

**Q.** With `Cc1cn2cc(-c3cc4ccc(N5CCN(CCCO)[C@@H](C)C5)cc4oc3=O)nc2c(C)n1` [Compound 907, 3-(6,8-dimethylimidazo[1,2-a]pyrazin-2-yl)-7-[(3S)-4-(3-hydroxypropyl)-3-methylpiperazin-1-yl]-2H-chromen-2-one] as the molecule, how does the melting point read?
**A.** 187 to 190 °C

**Q.** And the EC (1.5-fold) [1]?
**A.** < 0.1 µM

**Q.** What about the EC1.5x (concentration giving 1.5-fold Smn protein increase) (Smn protein) of the same molecule?
**A.** < 300 nM

**Q.** What about the “maximum fold (Fold) increase” value (Smn protein) of the same molecule?
**A.** **** (fold increase between >1.5 and ≤1.65)

**Q.** For `Cc1cn2cc(-c3cc4ccc(CCCN(C)C)cc4oc3=O)cc(F)c2n1` [Compound 909, 7-[3-(dimethylamino)propyl]-3-(8-fluoro-2-methylimidazo[1,2-a]pyridin-6-yl)-2H-chromen-2-one], which melting point is on record?
**A.** 185 to 188 °C

**Q.** And the EC (1.5-fold) [1]?
**A.** < 0.1 µM

**Q.** What about the EC1.5x (concentration giving 1.5-fold Smn protein increase) (Smn protein) of the same molecule?
**A.** < 300 nM

**Q.** And the “maximum fold (Fold) increase” value (Smn protein)?
**A.** ***** (fold increase >1.65)

**Q.** What does the source list for `CCc1cc(-c2cc3ccc(CCCN(C)C)cc3oc2=O)cn2cc(C)nc12` [Compound 910, 7-[3-(dimethylamino)propyl]-3-(8-ethyl-2-methylimidazo[1,2-a]pyridin-6-yl)-2H-chromen-2-one]?
**A.** melting point: 123 to 126 °C; EC (1.5-fold) [1]: < 0.1 µM; EC1.5x (concentration giving 1.5-fold Smn protein increase) (Smn protein): < 300 nM; maximum fold (Fold) increase of Smn protein (Smn protein): ***** (fold increase >1.65)

**Q.** What does the source list for `CNCCc1ccc2cc(-c3cn4cc(C)nc(C)c4n3)c(=O)oc2c1` [Compound 911, 3-(6,8-dimethylimidazo[1,2-a]pyrazin-2-yl)-7-[2-(methylamino)ethyl]-2H-chromen-2-one]?
**A.** melting point: 204 to 208 °C; EC (1.5-fold) [1]: < 0.1 µM; EC1.5x (concentration giving 1.5-fold Smn protein increase) (Smn protein): < 300 nM; maximum fold (Fold) increase of Smn protein (Smn protein): ***** (fold increase >1.65)

**Q.** For `CNCCCc1ccc2cc(-c3cn4cc(C)nc(C)c4n3)c(=O)oc2c1` [Compound 912, 3-(6,8-dimethylimidazo[1,2-a]pyrazin-2-yl)-7-[3-(methylamino)propyl]-2H-chromen-2-one], which melting point is on record?
**A.** 197 to 201 °C

**Q.** What about the EC (1.5-fold) [1] of the same molecule?
**A.** < 0.1 µM

**Q.** And the EC1.5x (concentration giving 1.5-fold Smn protein increase) (Smn protein)?
**A.** < 300 nM

**Q.** And the “maximum fold (Fold) increase” value (Smn protein)?
**A.** **** (fold increase between >1.5 and ≤1.65)
